Source: US20240391862A1, “(1,4,5-TRISUBSTITUTED-1H-PYRAZOL-3-YL)OXY-2-ALKOXY ALKYL ACIDS AND THEIR DERIVATIVES, THEIR SALTS AND THEIR USE AS HERBICIDAL AGENTS” (Bayer AKtiengesellschaft, priority 2021, published 2024)

How the values were obtained:
ZEAMX = assay: Post-emergence herbicidal effect and crop plant compatibility, greenhouse pot test; assay type: in vivo, Zea mays; settings: 20 g/ha, one-leaf stage, rated visually after about 3 weeks vs untreated controls
Excerpt: (§1) • ALOMY: Alopecurus myosuroides SETVI: Setaria viridis • AVEFA: Avena fatua POLCO: Fallopia convolvulus • AMARE: Amaranthus retroflexus ECHCG: Echinochloa crus-galli • LOLRJ: Lolium rigidum STEME: Stellaria media • VERPE: Veronica persica MATIN: Tripleurospermum inodorum • DIGSA: Digitaria sanguinalis ABUTH: Abutylon threophrasti • TRZAS: Triticum aestivum VIOTR: Viola tricolor • BRSNW: Brassica napus ZEAMX: Zea mays • PHBPU: Ipomoea purpurea GLXMA: Glycine max • ORYSA: Oryza sativa HORMU: Hordeum murinum
(§2) Seeds of monocotyledonous and dicotyledonous weeds and crop plants are placed in sandy loam in plastic or organic planting pots, covered with soil and cultivated in a greenhouse under controlled growth conditions. 2 to 3 weeks after sowing, the trial plants are treated at the one-leaf stage. The compounds of the invention, formulated in the form of wettable powders (WP) or as emulsion concentrates (EC), are then sprayed onto the green parts of the plants as aqueous suspension or emulsion with addition of 0.5% additive at a water application rate of 600 l/ha (converted). After the test plants have been kept in the greenhouse under optimum growth conditions for about 3 weeks, the activity of the preparations is rated visually in comparison to untreated controls. For example, 100% activity=the plants have died, 0% activity=like control plants.
(§3) Tables 20a to 38c below show the effects/crop compatibilities of selected compounds of the general formula (I) on various harmful plants at an application rate corresponding to 20 to 320 g/ha, which were obtained by the trial procedure specified above.

ABUTH = assay: Post-emergence herbicidal effect, greenhouse pot test; assay type: in vivo, Abutilon theophrasti; settings: visual rating about 3 weeks after treatment
Excerpt: as §1, §2, §3

ALOMY = assay: as above; assay type: in vivo, Alopecurus myosuroides; settings: 320 g/ha, visual rating about 3 weeks after treatment
Excerpt: as §1, §2, §3

AVEFA = assay: as above; assay type: in vivo, Avena fatua; settings: visual rating about 3 weeks after treatment
Excerpt: as §1, §2, §3

DIGSA = assay: as above; assay type: in vivo, Digitaria sanguinalis; settings: visual rating about 3 weeks after treatment
Excerpt: as §1, §2, §3

ECHCG = assay: as above; assay type: in vivo, Echinochloa crus-galli
Excerpt: as §1, §2, §3

MATIN = assay: as above; assay type: in vivo, Tripleurospermum inodorum
Excerpt: as §1, §2, §3

PHBPU = assay: as above; assay type: in vivo, Ipomoea purpurea
Excerpt: as §1, §2, §3

POLCO = assay: as above; assay type: in vivo, Fallopia convolvulus
Excerpt: as §1, §2, §3

SETVI = assay: as above; assay type: in vivo, Setaria viridis
Excerpt: as §1, §2, §3

VERPE = assay: as above; assay type: in vivo, Veronica persica
Excerpt: as §1, §2, §3

VIOTR = assay: as above; assay type: in vivo, Viola tricolor
Excerpt: as §1, §2, §3

KCHSC = assay: as above; assay type: in vivo
Experimental: as §2, with “plants. Tables 20a to 38c below show the effects/crop compatibilities of selected compounds of the general formula (I) on various harmful plants at an application rate corresponding to 20 to 320 g/ha, which were obtained by the trial procedure specified above.” for “plants.”

For `COC(=O)CCOC(=O)C(OC)Oc1nn(-c2ccccc2F)c(-c2ccc(F)nc2)c1C(F)(F)F` (stereo not drawn) [Example I-62], the “Post-emergence effect at 20 g/ha against ZEAMX in %” value (ZEAMX) was 0%, the “Post-emergence effect against ABUTH” value (ABUTH; 80 g/ha) was 80% and the “Post-emergence effect against ABUTH” value (ABUTH; 320 g/ha) was 90%. The “Post-emergence effect against ALOMY” value (ALOMY) was 90%, the “Post-emergence effect against AVEFA” value (AVEFA; 80 g/ha) was 90% and the “Post-emergence effect against AVEFA” value (AVEFA; 320 g/ha) was 90%. For the same molecule, the “Post-emergence effect against DIGSA” value (DIGSA; 80 g/ha) was 90%, the “Post-emergence effect against DIGSA” value (DIGSA; 320 g/ha) was 90% and the “Post-emergence effect against ECHCG in %” value (ECHCG; 80 g/ha) was 90%. For the same molecule, the “Post-emergence effect against ECHCG in %” value (ECHCG; 320 g/ha) was 90%, the “Post-emergence effect against MATIN in %” value (MATIN; 80 g/ha) was 80% and the “Post-emergence effect against MATIN in %” value (MATIN; 320 g/ha) was 80%. For the same molecule, the “Post-emergence effect against PHBPU in %” value (PHBPU; 20 g/ha) was 90%, the “Post-emergence effect against PHBPU in %” value (PHBPU; 80 g/ha) was 90% and the “Post-emergence effect against PHBPU in %” value (PHBPU; 320 g/ha) was 90%. For the same molecule, the “Post-emergence effect against POLCO in %” value (POLCO; 80 g/ha) was 80%, the “Post-emergence effect against POLCO in %” value (POLCO; 320 g/ha) was 80% and the “Post-emergence effect against SETVI in %” value (SETVI; 80 g/ha) was 90%. The “Post-emergence effect against SETVI in %” value (SETVI; 320 g/ha) was 90%, the “Post-emergence effect against VERPE in %” value (VERPE; 80 g/ha) was 80% and the “Post-emergence effect against VERPE in %” value (VERPE; 320 g/ha) was 80%. The “Post-emergence effect against VIOTR in %” value (VIOTR; 80 g/ha) was 90%, the “Post-emergence effect against VIOTR in %” value (VIOTR; 320 g/ha) was 90% and the “Post-emergence effect against KCHSC in %” value (KCHSC; 20 g/ha) was 80%. The “Post-emergence effect against KCHSC in %” value (KCHSC; 80 g/ha) was 90% and the “Post-emergence effect against KCHSC in %” value (KCHSC; 320 g/ha) was 90%.
`CCOC(Oc1nn(-c2ccccc2F)c(-c2ccc(F)nc2)c1Br)C(=O)OCCC(=O)OC` (single isomer, unassigned) [Example I-63, Methyl 3-{[(2R*)-2-{[4-bromo-1-(2-fluorophenyl)-5-(6-fluoropyridin-3-yl)-1H-pyrazol-3-yl]oxy}-2-ethoxyethanoyl]oxy}propanoate] was tested, and the pest or weed control at 80 g/ha (ABUTH; Abutilon theophrasti, 504 h, 80 g/ha, read-out: Post-emergence effect against ABUTH) was 90%, the pest or weed control at 320 g/ha (ABUTH; Abutilon theophrasti, 504 h, 320 g/ha, read-out: Post-emergence effect against ABUTH) was 90% and the pest or weed control at 320 g/ha (ALOMY; Alopecurus myosuroides, 504 h, read-out: Post-emergence effect against ALOMY) was 90%. It also gave a pest or weed control at 80 g/ha (AVEFA; Avena fatua, 504 h, 80 g/ha, read-out: Post-emergence effect against AVEFA) of 80%, a pest or weed control at 320 g/ha (AVEFA; Avena fatua, 504 h, 320 g/ha, read-out: Post-emergence effect against AVEFA) of 90% and a pest or weed control at 80 g/ha (DIGSA; Digitaria sanguinalis, 504 h, 80 g/ha, read-out: Post-emergence effect against DIGSA) of 90%. For the same molecule, the pest or weed control at 320 g/ha (DIGSA; Digitaria sanguinalis, 504 h, 320 g/ha, read-out: Post-emergence effect against DIGSA) was 90%, the pest or weed control at 20 g/ha (ECHCG; Echinochloa crus-galli, 504 h, 20 g/ha, visual rating about 3 weeks after treatment, read-out: Post-emergence effect against ECHCG) was 90% and the pest or weed control at 80 g/ha (ECHCG; Echinochloa crus-galli, 504 h, 80 g/ha, read-out: Post-emergence effect against ECHCG in %) was 90%. For the same molecule, the pest or weed control at 320 g/ha (ECHCG; Echinochloa crus-galli, 504 h, 320 g/ha, read-out: Post-emergence effect against ECHCG in %) was 90%, the pest or weed control at 80 g/ha (MATIN; Tripleurospermum inodorum, 504 h, 80 g/ha, read-out: Post-emergence effect against MATIN in %) was 80% and the pest or weed control at 320 g/ha (MATIN; Tripleurospermum inodorum, 504 h, 320 g/ha, read-out: Post-emergence effect against MATIN in %) was 80%. The pest or weed control at 20 g/ha (PHBPU; Ipomoea purpurea, 504 h, 20 g/ha, read-out: Post-emergence effect against PHBPU in %) was 80%, the pest or weed control at 80 g/ha (PHBPU; Ipomoea purpurea, 504 h, 80 g/ha, read-out: Post-emergence effect against PHBPU in %) was 90% and the pest or weed control at 320 g/ha (PHBPU; Ipomoea purpurea, 504 h, 320 g/ha, read-out: Post-emergence effect against PHBPU in %) was 90%. For the same molecule, the pest or weed control at 80 g/ha (POLCO; Fallopia convolvulus, 504 h, 80 g/ha, read-out: Post-emergence effect against POLCO in %) was 80%, the pest or weed control at 320 g/ha (POLCO; Fallopia convolvulus, 504 h, 320 g/ha, read-out: Post-emergence effect against POLCO in %) was 90% and the pest or weed control at 80 g/ha (SETVI; Setaria viridis, 504 h, 80 g/ha, read-out: Post-emergence effect against SETVI in %) was 90%. It also gave a pest or weed control at 320 g/ha (SETVI; Setaria viridis, 504 h, 320 g/ha, read-out: Post-emergence effect against SETVI in %) of 90%, a pest or weed control at 80 g/ha (VERPE; Veronica persica, 504 h, 80 g/ha, read-out: Post-emergence effect against VERPE in %) of 80% and a pest or weed control at 320 g/ha (VERPE; Veronica persica, 504 h, 320 g/ha, read-out: Post-emergence effect against VERPE in %) of 80%. For the same molecule, the pest or weed control at 80 g/ha (VIOTR; Viola tricolor, 504 h, 80 g/ha, read-out: Post-emergence effect against VIOTR in %) was 80%, the pest or weed control at 320 g/ha (VIOTR; Viola tricolor, 504 h, 320 g/ha, read-out: Post-emergence effect against VIOTR in %) was 90% and the pest or weed control at 320 g/ha (KCHSC; 504 h, 320 g/ha, read-out: Post-emergence effect against KCHSC in %) was 90%.
In the case of `COC(=O)CCOC(=O)C(OC)Oc1nn(-c2ccccc2F)c(-c2ccc(F)nc2)c1C1CC1` (stereo not drawn) [Example I-61], the “Post-emergence effect at 20 g/ha against ZEAMX in %” value (ZEAMX) is reported as 0%, the “Post-emergence effect against ABUTH” value (ABUTH; 80 g/ha) is reported as 80% and the “Post-emergence effect against ABUTH” value (ABUTH; 320 g/ha) is reported as 80%. The “Post-emergence effect against ALOMY” value (ALOMY) was 90%, the “Post-emergence effect against AVEFA” value (AVEFA; 80 g/ha) was 80% and the “Post-emergence effect against AVEFA” value (AVEFA; 320 g/ha) was 90%. The “Post-emergence effect against DIGSA” value (DIGSA; 80 g/ha) was 80%, the “Post-emergence effect against DIGSA” value (DIGSA; 320 g/ha) was 90% and the “Post-emergence effect against ECHCG in %” value (ECHCG; 80 g/ha) was 90%. For the same molecule, the “Post-emergence effect against ECHCG in %” value (ECHCG; 320 g/ha) was 90%, the “Post-emergence effect against MATIN in %” value (MATIN; 80 g/ha) was 80% and the “Post-emergence effect against MATIN in %” value (MATIN; 320 g/ha) was 80%. The “Post-emergence effect against PHBPU in %” value (PHBPU; 80 g/ha) was 90%, the “Post-emergence effect against PHBPU in %” value (PHBPU; 320 g/ha) was 90% and the “Post-emergence effect against POLCO in %” value (POLCO; 80 g/ha) was 80%. The “Post-emergence effect against POLCO in %” value (POLCO; 320 g/ha) was 80%, the “Post-emergence effect against SETVI in %” value (SETVI; 80 g/ha) was 90% and the “Post-emergence effect against SETVI in %” value (SETVI; 320 g/ha) was 90%. For the same molecule, the “Post-emergence effect against VERPE in %” value (VERPE; 80 g/ha) was 80%, the “Post-emergence effect against VERPE in %” value (VERPE; 320 g/ha) was 80% and the “Post-emergence effect against VIOTR in %” value (VIOTR; 20 g/ha) was 80%. For the same molecule, the “Post-emergence effect against VIOTR in %” value (VIOTR; 80 g/ha) was 90%, the “Post-emergence effect against VIOTR in %” value (VIOTR; 320 g/ha) was 90% and the “Post-emergence effect against KCHSC in %” value (KCHSC; 80 g/ha) was 80%. For the same molecule, the “Post-emergence effect against KCHSC in %” value (KCHSC; 320 g/ha) was 90%.
